{
  "source": "patent US8492109B2",
  "about": "(priority 2009, dated 2013)",
  "key": {"M17 cells [1]": {"system": "M17 cells", "type": "cell-based"}, "M17 cells [2]": {"system": "M17 cells"}, "HIT-T15 cells [3]": {"system": "HIT-T15 cells", "type": "cell-based, human"}, "HIT-T15 cells [4]": {"system": "HIT-T15 cells", "type": "cell-based, human", "remark": "listed apart in the source"}, "[5]": {"system": "neuronal cell lines M17, Neuro2a and non-neuronal cell lines HEK293, HIT-T15", "type": "cell-based"}, "[6]": {"system": "primary rat granule cerebellar neurons (RGCN)"}},
  "data": [
    {"smiles": "CO/C1=C\\C(C)=C\\[C@@H](C)[C@@H](O)[C@@H](C)C/C(C)=C/C=C/[C@H](OC)[C@@H]([C@@H](C)[C@@H](O)[C@H](C)[C@@]2(O)C[C@@H](O)[C@H](C)[C@@H](C(C)C)O2)OC1=O", "note": "[Bafilomycin, Bafilomycin A1]", "values": [
      {"measurement": "effect on efficiency of plasmid DNA transfection mediated by FuGene (fluorescent protein expression)", "setting": "M17 cells [1]", "result": "no inhibitory effect"},
      {"measurement": "bafilomycin cytotoxicity", "setting": "HEK293 cells", "result": "particularly susceptible to bafilomycin toxicity"},
      {"measurement": "inhibition of SNAP25 cleavage by BoNT/A holotoxin", "setting": "M17 cells [2]", "result": "inhibited SNAP25 cleavage"},
      {"measurement": "effect on efficiency of plasmid DNA transfection mediated by FuGene (fluorescent protein expression)", "setting": "HIT-T15 cells [3]", "result": "no inhibitory effect"},
      {"measurement": "inhibition of functional internalization of recombinant BoNT/A Lc", "setting": "HIT-T15 cells [4]", "result": "inhibited functional internalization"},
      {"measurement": "inhibition of BoNT intoxication", "setting": "[5]", "result": "clearly inhibited"},
      {"measurement": "sensitivity of functional transduction of BoNT Lc to bafilomycin", "setting": "[5]", "result": "fully sensitive"},
      {"measurement": "SNAP25 cleavage in bafilomycin-treated cells", "setting": "[6]", "result": "a small amount of SNAP25 cleavage was observed"},
      {"measurement": "cytotoxicity (visual)", "setting": "[6]", "result": "Some cytoxicity"},
      {"measurement": "inhibition of BoNT/A intoxication (SNAP25 cleavage)", "setting": "[6]", "result": "completely inhibit"}
    ]}
  ]
}
